# Measurements as given in PubChem BioAssay AID1465 (SRMLSC, 2008).
# Test system: S. cerevisiae Yfh1-off respiration, WST-1 reduction, 72 h
# Assay: enhancers of respiration in Yfh1-depleted yeast, dose response, Friedreich's ataxia, plus single-dose screen (AID 1465);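 further: activators that raise dye reduction in frataxin-depleted yeast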
row,Compound,EC50 [µM]
1,Cc1c(N/N=C(\C#N)C(=O)c2ccc(Cl)cc2)c(=O)n(-c2ccccc2)n1C,21.5
2,COc1ccc(C2=NN(c3nc4ccccc4s3)C(=O)C2)cc1,59.4
3,O=C(CCc1ccccc1)NC(c1cccs1)c1cc(Cl)c2cccnc2c1O (stereo not given),7.44
4,COc1cc(/C=N/NC(=O)c2cncc(Br)c2)cc([N+](=O)[O-])c1O,58.1
5,CCOC(=O)C1=C(Cc2ccc(F)cc2)C(=O)c2ccccc2C1=O,36
6,COc1ccc(Cn2c(O)c(/C=N/NC(=O)c3cccnc3)c3ccccc3c2=O)cc1,75.4
7,CCN(CC)c1ccc(/C=N/NC(=O)c2cccc(S(=O)(=O)Nc3ccccc3OC)c2)c(O)c1,75.4
8,CN1/C(=C\C=C2C(=O)NC(=O)NC2=O)C(C)(C)c2ccccc21,96.8
9,O=C1C=C(NCc2ccccc2)c2ccccc2C1=O,36.1
10,c1ccc(-c2ccc(SCc3cccnc3)nn2)nc1,42.5
11,O=[N+]([O-])c1cccc(/C=N/Nc2nc(NCc3ccccc3)nc(N3CCOCC3)n2)c1O,50.9
12,O=C(Cn1nc(Cl)nc1Cl)c1cc2ccccc2oc1=O,72.6
13,CCCC(=O)NC(c1ccco1)c1cc([N+](=O)[O-])c2cccnc2c1O (stereo not given),55.2
14,COc1ccccc1N1CCN(Cc2ccc(O)c3ncccc23)CC1,43
15,CCC(=O)NC(c1ccc(OC)c(OC)c1)c1cc(Cl)c2cccnc2c1O (stereo not given),29.2
16,CCC(=O)NC(c1ccc(C)cc1)c1cc([N+](=O)[O-])c2cccnc2c1O (stereo not given),24.7
17,O=C(N/N=C/c1c(O)n(Cc2ccccc2)c(=O)c2ccccc12)c1cccnc1,71.9
18,CC[n+]1c(C=C2C=C(C)OC(C)=C2)sc2ccccc21,83.8
19,Cc1ccc(NS(=O)(=O)c2cc([N+](=O)[O-])ccc2NNC(=S)Nc2cccc(Cl)c2)c(C)c1,30.8
20,CCCCC(=O)NC(c1cccs1)c1cc(Cl)c2cccnc2c1O (stereo not given),8.49

row,Compound,EC50 [µM]
1,CCCCC(=O)NC(c1ccccc1OC)c1ccc2cccnc2c1O (stereo not given),36.5
2,CC1=C(C)C(=O)C(N2CCOCC2)=CC1=O,14.3
3,CCCCCC(=O)NNC(=S)NC(C)=O,34.6
4,O=C1C(Cl)=C(Nc2ccccc2)C(=O)c2ccccc21,67.6
5,CCN1CCS/C1=C/C=C/C1=[N+](CC)CCS1,56.3
6,O=[N+]([O-])c1ccc(Sc2cccc[n+]2[O-])c2nonc12,16.8
7,CC1=CC(=Cc2sc3ccccc3[n+]2C)C=C(C)O1,93.7
8,CC1=C(C)C(=O)C(CCCCC#CCCCC#CCO)=C(C)C1=O,94.8
9,CC1CC(=O)c2c(cc3c(-c4c(O)cc(O)c5c(O)c6c(cc45)OC(C)CC6=O)c(O)cc(O)c3c2O)O1 (stereo not given),75
10,Cc1c(N/N=C(\C#N)C(=O)c2ccccc2)c(=O)n(-c2ccccc2)n1C,52
11,CCCC(=O)NC(c1cccs1)c1cc([N+](=O)[O-])c2cccnc2c1O (stereo not given),20.9
12,CCOC(=O)c1c(C)oc2c1c(CN1CCN(CCO)CC1)c(O)c1ccccc12,85
13,Oc1ccc(CN2CCC(Cc3ccccc3)CC2)c2cccnc12,96.9
14,COc1ccccc1C(=O)NNC1=C(C(=O)C(F)(F)F)CCC1,25.3
15,CC(=O)NC(c1cccs1)c1cc([N+](=O)[O-])c2cccnc2c1O (stereo not given),25.4
16,O=C(NNC1=C(C(=O)C(F)(F)F)CCC1)c1ccc(Br)cc1,59.8
17,Cn1cccc1/C=C1\SC(=S)N(CC(=O)O)C1=O,92.2
18,Cc1ccccc1C(=O)/C(C#N)=N/Nc1c(C)n(C)n(-c2ccccc2)c1=O,60
19,O=C1NC(=O)C(=Cc2ccc(N3CCOCC3)o2)C(=O)N1,96.6
20,COC(=O)c1ccc(=O)c2nc3/c(=C/O)c(O)cc(=O)c3[nH]c12,21.9

row,Compound,EC50 [µM]
1,Cc1cc(C(=O)N/N=C/c2ccc(O)c(O)c2O)c(C)n1-c1ccccc1,46
2,Cc1oc2c(c1C(=O)c1ccccc1)C(=O)C(=O)c1ccccc1-2,35.2
3,CCOC(=O)/C(C#N)=C\C=C1C=CN(C)C=C1,96
4,O=C(C1=C(c2ccccc2)C(=O)c2ccccc2C1=O)c1ccccc1,35.6
5,Cc1coc2c1C(=O)C(=O)c1c-2ccc2c(C)cccc12,78.8
6,O=C(O)c1cccc(NC(=S)N/N=C/c2ccccn2)c1,78.1
7,O=C(COc1ccc(Cl)cc1Cl)NNC(=S)Nc1ccc(F)cc1,83.3
8,CC(=O)NC(c1ccc(C)cc1)c1cc([N+](=O)[O-])c2cccnc2c1O (stereo not given),25
9,O=C1c2ccccc2NC(c2ccc(-c3cccc(Cl)c3)o2)N1O (stereo not given),80
10,CCN1CCS/C1=C\C=C\C1=[N+](CC)CCS1,53.7
11,CCC(=O)NC(c1cccs1)c1cc([N+](=O)[O-])c2cccnc2c1O (stereo not given),34.4
12,CC1=CC(=O)c2ccccc2C1=O,45.7
13,O=C(O)c1cccc2nc3ccccc3nc12,47.6
14,O=c1cc(-c2ccccc2)[nH]n1-c1nc2ccccc2s1,49.1
15,COc1cc([N+](=O)[O-])cc(/C=N/NC(=O)c2cc(-c3ccccc3)nc3ccccc23)c1O,35.2
16,CCC(=O)NC(c1ccc(OC)cc1)c1cc(Cl)c2cccnc2c1O (stereo not given),38.2
17,CCN1/C(=C\C=C(C(C)=O)C(C)=O)Sc2ccccc21,87.4
18,CCC(C(=O)O)N1C(=O)/C(=C/c2cccn2C)SC1=S (stereo not given),96.7
19,CCC(=O)NC(c1cccs1)c1cc(Cl)c2cccnc2c1O (stereo not given),65.9
20,NC(=S)n1[nH]c(-c2ccc([N+](=O)[O-])cc2)c(N=Nc2cccc([N+](=O)[O-])c2)c1=O,44.1
